A value given as a limit tells only on which side of the number the result lay.

In series [1] the test system is carp. The following applies: immersion; cited from earlier work.
The subject of series [2] is Sprague Dawley rats. As to the kind of experiment: Another experiment: IV doses of 10% (v/v) solutions in […]. It is filed as in vivo, rat. The source says: In another experiment, a 10% (v/v) solution of methyl salicylate in […]®, and a 10% (v/v) solution of L-carvone in […]® were each tested in Sprague Dawley rats that each weighed approximately 300 g.
Series [3] can be described thus: Plasma concentration during IV infusion anesthesia (LC-MS). Type of series: in vivo, rat. The protocol: Lateral tail veins were catheterized in eight, 70-day-old, male, Sprague Dawley rats weighing 309±6 g. A 10% solution of L-carvone or methyl salicylate in 20% […]® was each administered IV to 8 rats (4 animals per drug treatment) by using a syringe pump at a rate of 12 mL/h. When rats lost their righting reflex and were unresponsive to a tail clamp, a midline laparotomy was performed, the abdominal aorta catheterized, and the rat exsanguinated. Blood was collected in a heparin tube and centrifuged; plasma was separated and stored in cryogenic tubes at −80° C. until analysis.
Serum calibrations were prepared by dilution of working standard solutions of methyl salicylate and L-carvone with drug-free rat serum (Innovative Research, Novi, MI, USA) to concentrations ranging from 0.05 to 500 μg/mL. Calibration curves and negative control samples were prepared fresh for each quantitative assay. In addition, quality control samples (drug-free rat serum fortified with analyte at 3-4 concentrations within the standard curve) were included as an additional check of accuracy.
Prior to analysis, 100 μL of each serum sample was diluted with 100 μL of acetonitrile (ACN):1 M acetic acid (9:1, v:v) and 50 μL of methanol to precipitate proteins. The samples were vortexed for 2 min to mix, refrigerated for 20 min, vortexed for an additional 1 min, centrifuged (4,300 rpm/3, 102 g) for 10 min at 4 °C, and 10 μL injected into the liquid chromatography tandem mass spectrometry system.
Quantitative analysis was performed on an LTQ XL Orbitrap mass spectrometer (Thermo Scientific, San Jose, CA, USA) coupled with a Waters Acquity UPLC (Milford, MA, USA). […] Detection and quantification were conducted using full-scan accurate mass from 145 to 160 (m/z). […]
The precision and accuracy of the assay was determined by assaying quality control samples in replicates (n=6). […] The technique was optimized to provide limits of quantitation of 0.5 μg/mL and 0.05 μg/mL and limits of detection of approximately 0.1 μg/mL and 0.025 μg/mL for methyl salicylate and L-carvone, respectively.

Series [4] concerns the target T1, Nav1.2 channels (human SCN2A) (Homo sapiens, UniProt Q99250).
T1 construct: expressed in transfected cells; host or cells: Xenopus laevis oocytes (RNA injection)
The series can be described thus: Two-electrode voltage clamp of Nav1.2 channels expressed in Xenopus oocytes. It is filed as cell-based. The following applies: for inhibition of Nav1.2 channels: at the mean plasma concentration during IV infusion anesthesia in rats; for Hill coefficient, Nav1.2 channel inhibition: dose-response model; for effect on Nav1.2 channel currents: dose-response, oocytes. The source says:
Ovaries removed from sexually mature Xenopus laevis frogs were bluntly dissected to remove surrounding connective tissue and then digested with 0.2% type I collagenase in an oocyte Ringer's solution. Once free from thecal cells and connective tissue, individual oocytes were rinsed, sorted, and stored in a modified Barth's solution (R. Brosnan et al., Anesth. Analg. 103, (2006): 86; L. Yang, P. S. Milutinovic, R. J. Brosnan, E. I. Eger 2nd, & J. M. Sonner, Anesth. Analg. 105, (2007): 393; R. J. Brosnan, F. B. Fukushima, & T. L. Pham, Anaesth. Analg. 44, (2017): 577; A. Cenani, R. J. Brosnan, & H. K. Knych, Pharmacology 103, (2019): 10).
Heteromeric GABAA receptors were expressed in oocytes by blind intranuclear injection of 1 ng DNA encoding the human al (GABRA1) and rat B2 (GABRB2) subunits in a 1:1 ratio. NMDA receptors were expressed by intracytoplasmic injection of 5 ng RNA encoding rat NR1 (GRIN1) and rat NR2a (GRIN2A) subunits in a 1:1 ratio. Nax 1.2 channels were expressed by injection of 5 ng RNA encoding the human SCN2A gene.
Studies of the Nav1.2 channels were carried out Using the same equipment as above, oocytes were perfused with FR and clamped at −80 mV transmembrane potential. Every 2 min, a 6-s step potential to 0 mV was applied to open the channel; this was repeated until baseline responses stabilized. Next, FR containing the test drug was perfused for 2 min followed by another 6-s step voltage change to 0 mV. Finally, FR was perfused for 5 min to wash out the drug, and another 6-s step clamp to 0 mV was applied to confirm that post-drug currents had returned to within 10% of pre-drug values.
The change in whole cell peak current before and during agonist exposure (for GABAA and NMDA receptors) or before and during the voltage step clamp (for Nav1.2 channels) was measured in the tracings immediately before and during drug exposure. Percent change in current was calculated as follows:
[formula] • where IB is the baseline pre-drug current peak and ID is the drug current peak. For each drug and ion channel, data were fit to a Hill equation using nonlinear regression with sequential quadratic programming and bootstrap estimates of parameter standard errors (SPSS, v. 27; IBM, Armonk, NY, USA). In the model, maximum drug inhibition (Imax) was constrained to not be less than −100%. Initial parameter estimates were seeded with values based on visual inspection of respective dose-response curves in order to facilitate model convergence.

[5] abbreviates: Sprague Dawley, rat, in vivo, iv.

T1 sequence (Q99250 whole entry): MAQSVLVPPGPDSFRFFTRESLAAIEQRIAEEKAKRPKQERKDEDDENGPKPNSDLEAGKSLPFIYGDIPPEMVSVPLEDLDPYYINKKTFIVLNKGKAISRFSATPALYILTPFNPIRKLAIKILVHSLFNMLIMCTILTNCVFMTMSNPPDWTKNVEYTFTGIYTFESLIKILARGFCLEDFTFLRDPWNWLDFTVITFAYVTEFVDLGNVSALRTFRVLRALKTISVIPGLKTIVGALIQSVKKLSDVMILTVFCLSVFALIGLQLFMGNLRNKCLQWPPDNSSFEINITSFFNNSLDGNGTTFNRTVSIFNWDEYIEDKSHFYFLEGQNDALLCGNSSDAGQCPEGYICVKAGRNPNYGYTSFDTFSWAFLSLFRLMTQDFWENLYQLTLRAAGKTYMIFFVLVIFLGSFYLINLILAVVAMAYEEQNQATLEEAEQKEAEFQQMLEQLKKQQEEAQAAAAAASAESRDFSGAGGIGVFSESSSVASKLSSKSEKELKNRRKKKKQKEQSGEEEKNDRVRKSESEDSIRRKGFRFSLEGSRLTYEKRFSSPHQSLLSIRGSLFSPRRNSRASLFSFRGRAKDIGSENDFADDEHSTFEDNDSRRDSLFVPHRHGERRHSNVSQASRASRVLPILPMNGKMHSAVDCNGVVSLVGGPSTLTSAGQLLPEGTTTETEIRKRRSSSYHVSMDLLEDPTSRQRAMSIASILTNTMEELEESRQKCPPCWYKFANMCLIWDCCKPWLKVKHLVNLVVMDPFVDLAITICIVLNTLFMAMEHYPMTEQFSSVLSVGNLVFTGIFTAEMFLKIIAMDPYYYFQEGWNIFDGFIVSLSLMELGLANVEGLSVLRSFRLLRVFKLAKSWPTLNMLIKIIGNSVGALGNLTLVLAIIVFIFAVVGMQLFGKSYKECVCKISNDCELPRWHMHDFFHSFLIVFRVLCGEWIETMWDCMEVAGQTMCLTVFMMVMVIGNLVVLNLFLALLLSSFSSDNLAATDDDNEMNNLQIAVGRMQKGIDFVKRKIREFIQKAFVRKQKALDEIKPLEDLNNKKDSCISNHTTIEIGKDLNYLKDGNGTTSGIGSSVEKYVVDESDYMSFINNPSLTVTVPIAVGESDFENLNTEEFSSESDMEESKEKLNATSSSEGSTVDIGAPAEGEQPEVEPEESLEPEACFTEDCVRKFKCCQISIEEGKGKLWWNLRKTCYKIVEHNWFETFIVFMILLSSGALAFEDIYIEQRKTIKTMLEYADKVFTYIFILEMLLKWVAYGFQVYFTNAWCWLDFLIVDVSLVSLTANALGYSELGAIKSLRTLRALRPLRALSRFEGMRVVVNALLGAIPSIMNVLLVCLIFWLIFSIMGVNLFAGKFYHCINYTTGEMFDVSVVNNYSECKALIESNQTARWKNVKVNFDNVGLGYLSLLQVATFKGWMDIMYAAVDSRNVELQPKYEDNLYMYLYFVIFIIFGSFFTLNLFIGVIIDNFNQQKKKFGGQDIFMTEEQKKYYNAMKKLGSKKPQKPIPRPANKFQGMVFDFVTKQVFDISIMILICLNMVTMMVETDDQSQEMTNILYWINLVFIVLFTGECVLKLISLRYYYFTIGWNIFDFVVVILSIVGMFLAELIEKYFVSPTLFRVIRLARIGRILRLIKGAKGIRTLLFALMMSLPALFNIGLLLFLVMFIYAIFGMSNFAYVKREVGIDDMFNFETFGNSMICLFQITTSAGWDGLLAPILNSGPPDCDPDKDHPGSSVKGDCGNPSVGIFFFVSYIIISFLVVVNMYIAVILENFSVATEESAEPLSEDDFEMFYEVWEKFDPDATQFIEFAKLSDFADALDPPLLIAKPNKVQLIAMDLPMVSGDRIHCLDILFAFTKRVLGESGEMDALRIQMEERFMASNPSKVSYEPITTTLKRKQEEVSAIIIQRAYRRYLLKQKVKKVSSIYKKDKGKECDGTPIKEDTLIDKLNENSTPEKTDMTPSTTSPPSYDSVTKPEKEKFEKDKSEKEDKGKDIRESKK

As to `COC(=O)c1ccccc1O` [methyl salicylate], the “bath concentration causing anesthesia” value in series [1] is 0.8 to 2.3 mM. Further, in series [2] (0.2 mL IV), the “duration of loss of righting reflex” value was found to be 30 s, the “time to ambulatory after return of righting” value amounted to 40 s and the “time to loss of righting reflex” value is no more than 25 s. Moreover, the “time to loss of righting” value in series [2] (0.4 mL IV) was 15 s. Also, in series [2] (setting [5]), the “time from apnea to confirmed cardiac arrest” value is “less than 1 minutes” and the “time from loss of righting to apnea” value is 5 s. The “gross necropsy performed 2 days later” value in series [2] (rat, in vivo, iv) is given as “No evidence of hepatic, renal, cardiac, or pulmonary injury”. Further, the “mean plasma concentration (±SEM) during IV infusion” value in series [3] (male, Sprague Dawley, rat, in vivo, iv) is 2700 ± 400 µM. In addition, in series [4], the “inhibition of Nav1.2 channels” value was found to be 78%; the “Hill coefficient, Nav1.2 channel inhibition” value was “greater than 1”; the “effect on Nav1.2 channel currents” value is reported as “dose-dependently inhibited”. Besides, the “greater potency for Nav1.2 channels than for NMDA receptors” value in series [4] (comparison of IC50, FIG. 4) was 50%.
For the compound L-carvone, the “bath concentration causing anesthesia” value in series [1] was 1.9 to 4.5 mM. Besides, in series [2] (0.2 mL IV), the “duration of general anesthesia effects” value was determined as 1 min; the “gross necropsy performed 2 days later” value was “No evidence of hepatic, renal, cardiac, or pulmonary injury”; the “time after administration to awake and ambulatory” value is no more than 3 min. For the same compound, the “time to general anesthesia (loss of righting reflex and tail clamp response)” value in series [2] (0.2 mL IV, approx. 300 g rats) is no more than 30 s. For the same compound, in series [2] (0.4 mL IV), the “apnea after onset of anesthesia” value is listed as “almost immediately”, the “time from apnea to confirmed cardiac arrest” value came out at 2 min and the time to anesthesia is no more than 45 s. The “plasma concentration relative to that for methyl salicylate” value in series [3] (at the time general anesthesia was achieved) is given as 3 times. For the same compound, the “mean plasma concentration (±SEM) during IV infusion” value in series [3] (rats N=4, at loss of righting reflex and tail clamp response) was found to be 7900 ± 3000 µM. Also, in series [4] (10 mM drug), the “Nav1.2 channel current at highest concentration” value was “near or complete loss of channel currents”. In series [4], the “inhibition of Nav1.2 channels” value is reported as 90%; the “Hill coefficient, Nav1.2 channel inhibition” value is roughly 1; the “effect on Nav1.2 channel currents” value is listed as “dose-dependent inhibition”.

The record behind these values is patent publication US20240226034A1, “Use of Terpenoids and Salicylates as Anesthetics and Analgesics” (THE REGENTS OF THE UNIVERSITY OF CALIFORNIA, priority 2021, published 2024).
